# According to paper PMC10147936, “Dietary factors potentially impacting thiaminase I-mediated thiamine deficiency” (Scientific Reports, 2023):
# Target: T1, thiaminase I from C. botulinum (BcmE) (Clostridium botulinum, UniProt A5HZW3)
# T1 construct: gene CBO0770
# Experiment: biochemical
# T1 sequence (A5HZW3 1-404): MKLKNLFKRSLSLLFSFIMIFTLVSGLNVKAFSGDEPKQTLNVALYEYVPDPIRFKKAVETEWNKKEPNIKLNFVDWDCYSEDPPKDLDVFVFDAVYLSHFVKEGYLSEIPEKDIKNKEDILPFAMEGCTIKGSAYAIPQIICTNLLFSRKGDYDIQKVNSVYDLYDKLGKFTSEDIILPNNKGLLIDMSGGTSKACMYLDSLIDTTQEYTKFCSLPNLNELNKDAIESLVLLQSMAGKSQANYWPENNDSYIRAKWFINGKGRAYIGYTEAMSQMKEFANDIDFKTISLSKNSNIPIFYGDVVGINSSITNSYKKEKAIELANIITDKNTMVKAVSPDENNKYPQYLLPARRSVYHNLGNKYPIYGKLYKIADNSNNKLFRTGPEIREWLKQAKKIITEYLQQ
compound,measurement,value
O=C1O[C@H]([C@@H](O)CO)C(O)=C1O [ascorbic acid],IC50,266 nM
